Results as given in publication PMC8659057, “Chemical Constituents from the Wild Atractylodes macrocephala Koidz and Acetylcholinesterase Inhibitory Activity Evaluation as Well as Molecular Docking Study” (Molecules, 2021).
Read-outs that look alike come from different tables or passages of the source.

Target: acetylcholinesterase (AChE, Type VI-S, from electric eel) (Electrophorus electricus, UniProt O42275)
Assay: modified Ellman colorimetric AChE inhibition assay
Assay type: biochemical

Sequence of acetylcholinesterase (AChE, Type VI-S, from electric eel) (O42275 24-633): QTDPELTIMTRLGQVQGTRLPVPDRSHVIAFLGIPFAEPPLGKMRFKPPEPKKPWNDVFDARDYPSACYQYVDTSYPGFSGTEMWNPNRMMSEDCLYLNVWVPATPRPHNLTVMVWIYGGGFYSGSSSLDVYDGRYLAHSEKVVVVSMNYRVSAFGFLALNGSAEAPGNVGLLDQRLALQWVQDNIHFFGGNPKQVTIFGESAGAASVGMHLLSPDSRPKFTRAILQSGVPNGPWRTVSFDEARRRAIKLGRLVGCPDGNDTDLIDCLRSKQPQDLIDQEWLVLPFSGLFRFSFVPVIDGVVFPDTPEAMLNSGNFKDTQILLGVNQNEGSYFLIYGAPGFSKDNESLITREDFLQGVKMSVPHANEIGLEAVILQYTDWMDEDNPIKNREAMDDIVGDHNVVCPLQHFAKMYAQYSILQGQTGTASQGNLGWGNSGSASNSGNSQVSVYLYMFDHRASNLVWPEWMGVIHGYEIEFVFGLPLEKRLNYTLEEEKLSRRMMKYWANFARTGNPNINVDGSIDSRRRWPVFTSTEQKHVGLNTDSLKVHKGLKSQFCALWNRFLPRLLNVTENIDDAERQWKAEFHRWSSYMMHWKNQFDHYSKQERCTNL

Structure (SMILES) | IC50 (read-out: IC50 (converted)) [µM] | IC50 [µM]
C=C1CCC[C@]2(C)C[C@]3(O)OC(=O)C(C)=C3C[C@@H]12 [compound 1, atractylenolide III] | 247 | 
C=C1C(OC(C)=O)CCC2(C)CC3(C45CC6(C)CCC(OC(C)=O)C(=C)C6CC4=C(C)C(=O)O5)OC(=O)C(C)=C3CC12 (centres unmarked) [compound 5, biatractylenolide II] |  | 33.9
